Results from patent US8362070B2, “Application of puerarin in the preparation of P2X3 mediated drugs for pain/nervous system diseases” (Nanchang University, priority 2009, dated 2013).

Tests used:
Assay type in all cases: in vivo, rat
[1] = tested on: P2X3 receptor mRNA; experiment: In situ hybridization of P2X3 receptor mRNA in dorsal root ganglion of CCI rats; conditions: L4/L5 DRG
[2] = tested on: rats that suffer from superficial second degree foot burn; experiment: Mechanical hyperalgesia (mechanical withdrawal threshold) in rats with foot burn; conditions: for mechanical withdrawal threshold (MWT) in comparison to group III (burn) / mechanical withdrawal threshold (MWT) after 72 hours or 96 hours: superficial second degree foot burn + drug; for mechanical withdrawal threshold (MWT) in comparison to group III (burn): p<0.01; for mechanical withdrawal threshold (MWT) after 72 hours or 96 hours: vs groups I, II, V p>0.05
Description: Male SD rats, 220-250 g, 60 rats were included, which were provided by the Department of Experimental Animals from the Medical College of Nanchang University, and the animals were divided into different groups at random. Group I was the group of sham burn in skin of feet; group II was the group of puerarin injection+first degree or superficial second degree burn in skin of feet; group III was the group of physiological saline+first degree or superficial second degree burn in skin of feet; group IV was the group of sham burn in skin of back; group V was the group of puerarin injection+first degree or superficial second degree burn in skin of back; group VI was the group of physiological saline+first degree or superficial second degree burn in skin of back. Puerarin injection was dissolved in physiological saline and the concentration was 50 mg/mL. vena caudalis injection of 4 mL/kg physiological saline was carried out for the rats in group III and […] 0.5 h before burn, and the injection was carried out once a day until the termination of the test; […], and the injection was carried out once a day until the termination of the test; skin of feet or back of the rats from group I and group IV (the sham burn group) were immersed in warm water of 37° C. for 8 seconds. After the rats were anesthetized by ether, their right posterior feet were immersed in hot water of 70° C. for 5 seconds or 8 seconds, then they were raised in separate cages after burn. The mechanical withdrawal threshold and the thermal withdrawal threshold in their right posterior feet were measured respectively before burn (Oh) and 1, 24, 48, 72, 96, 120, 144 hours after burn (the room temperature was maintained at 22±0.5° C.). BME-403 Von Frey fine thread was used to detect the mechanical withdrawal threshold (MWT). The rats were kept in transparent organic glass box (22×12×22 cm^3), and the bottom of the organic glass box was made of wire netting of 1×1 cm^2. The rats were raised in the laboratory after operations and they were kept in the organic glass box for accommodation for 15 min before the detection. The bending forces were 0.13, 0.20, 0.33, 0.60, 1.30, 3.60, 5.00, 7.30, 9.90, 20.1 g respectively. Each test was performed for ten times from the smallest bending force until the frequency of withdrawal was higher than 5/10, namely 50% reaction threshold (that was the value for inducing five reactions in ten tests). The biggest bending force was 20.1 g and bending forces≧20.1 g were recorded as 20.1 g. The interval between two stimulations was at least more than 15 seconds until the stimulation-induced reactions (such as licking feet and throwing legs) completely disappeared. BME-403 Von Frey fine thread was used to determine the mechanical withdrawal threshold (MWT). The rats were kept in transparent organic glass box (22×12×22 cm^3), and the bottom of the organic glass box was made of wire netting of 1×1 cm^2. The rats were raised in the laboratory after operations and they were kept in the organic glass box for accommodation for 15 minutes before the detection. The bending forces were 0.13, 0.20, 0.33, 0.60, 1.30, 3.60, 5.00, 7.30, 9.90, 20.1 g respectively, and bending forces≧20.1 g were recorded as 20.1 g. […]

[3] = tested on: P2X3 mRNA; experiment: In situ hybridization of P2X3 mRNA in dorsal root ganglion of burn rats; conditions: n=10
Procedure: SD rats (their body weights were 200±20 g) were randomly divided into the group I (sham back burn), the group II (Puerarin, intraperitoneal injection), the group III (superficial second degree back burn), the group IV (superficial second degree back burn+puerarin), the group V (control) and the group VI (superficial second degree back burn+Indocin). The rats in the group IV (superficial second degree back burn+puerarin) were subjected to intraperitoneal injection of Puerarin (100 mg/kg) everyday for continuous three days 30 minutes before and after burn. The rats in the group VI (superficial second degree back burn+Indocin) were subjected to intraperitoneal injection of idomethine (4 mg/kg/d) everyday for continuous three days 30 minutes before burn and after burn. Results of in situ hybridization were subjected to analysis by using Hmias-2000 high-resolution color medical image analysis system for the detection of P2X3 receptor expression in dorsal root ganglion (DRG) in burn position of rats.

[4] = tested on: rats that suffer from superficial second degree foot burn; experiment: Thermal hyperalgesia (thermal withdrawal latency) in rats with foot burn; conditions: for thermal withdrawal latency (TWL) in comparison to group III (burn) / thermal withdrawal latency (TWL) after 144 hours: superficial second degree foot burn + drug; for thermal withdrawal latency (TWL) in comparison to group III (burn): 24 hours after burn, p<0.01
Description: Male SD rats, 220-250 g, 60 rats were included, which were provided by the Department of Experimental Animals from the Medical College of Nanchang University, and the animals were divided into different groups at random. Group I was the group of sham burn in skin of feet; group II was the group of puerarin injection+first degree or superficial second degree burn in skin of feet; group III was the group of physiological saline+first degree or superficial second degree burn in skin of feet; group IV was the group of sham burn in skin of back; group V was the group of puerarin injection+first degree or superficial second degree burn in skin of back; group VI was the group of physiological saline+first degree or superficial second degree burn in skin of back. Puerarin injection was dissolved in physiological saline and the concentration was 50 mg/mL. vena caudalis injection of 4 mL/kg physiological saline was carried out for the rats in group III and […] 0.5 h before burn, and the injection was carried out once a day until the termination of the test; […], and the injection was carried out once a day until the termination of the test; skin of feet or back of the rats from group I and group IV (the sham burn group) were immersed in warm water of 37° C. for 8 seconds.
After the rats were anesthetized by ether, their right posterior feet were immersed in hot water of 70° C. for 5 seconds or 8 seconds, then they were raised in separate cages after burn. The mechanical withdrawal threshold and the thermal withdrawal threshold in their right posterior feet were measured respectively before burn (Oh) and 1, 24, 48, 72, 96, 120, 144 hours after burn (the room temperature was maintained at 22±0.5° C.).
The organic glass box was placed on a glass plate of 3 mm thick and BME-410C type automatic thermalgia stimulator was used to irradiate the footplates of rats. The time for the appearance of leg withdrawal after the irradiation on footplates of rats by using the thermal radiation stimulator was considered as the thermal withdrawal latency (TWL). The time for cutting off was 25 seconds in order to prevent burn on tissues.
The organic glass box was placed on a glass plate of 3 mm thick and BME-410C type automatic thermalgia stimulator (Institute of Biomedical Engineering, Chinese Academy of Medical Sciences) was used to irrdiate the footplates of rats. The time for the appearance of leg withdrawal after the irradiation on footplates of rats by using the thermal radiation stimulator was considered as the thermal withdrawal latency. The time for cutting off was 30 seconds in order to prevent burn on tissues.

[5] = CCI rats + drug, 14 days after operation, CCI 1.33±0.02, control 0.82±0.02
[6] = superficial second degree back burn + drug (puerarin 100 mg/kg i.p., idomethine 4 mg/kg/d i.p., three days), burn 1.15±0.04, control 0.99±0.02
[7] = puerarin alone i.p., no burn, p>0.05

For COc1ccc2c(c1)c(CC(=O)O)c(C)n2C(=O)c1ccc(Cl)cc1 [Indocin, Indometacin], the “average optical density of P2X3 positive neurons (P2X3 receptor mRNA, in situ hybridization)” value [1, 5] was 1.14±0.01, the “mechanical withdrawal threshold (MWT) in comparison to group III (burn)” value [2] was “significantly decreased” and the “mechanical withdrawal threshold (MWT) after 72 hours or 96 hours” value [2] was “almost recovered to normal level”. The “average optical density (P2X3 mRNA, in situ hybridization, DRG)” value [3, 6] was 1.06±0.05, the “thermal withdrawal latency (TWL) in comparison to group III (burn)” value [4] was “significantly increased” and the “thermal withdrawal latency (TWL) after 144 hours” value ([4]; p>0.05) was “almost recovered to normal level”.

For O=c1c(-c2ccc(O)cc2)coc2c([C@@H]3O[C@H](CO)[C@@H](O)[C@H](O)[C@H]3O)c(O)ccc12 [puerarin], the “average optical density of P2X3 positive neurons (P2X3 receptor mRNA, in situ hybridization)” value [1, 5] was 0.98±0.05, the “average optical density of P2X3 positive neurons (P2X3 receptor mRNA, in situ hybridization)” value ([1]; puerarin alone, no CCI, 14 days) was 0.82±0.03 and the “mechanical withdrawal threshold, comparison among sham, puerarin alone and control” value [2, 7] was “no significant difference”. The “mechanical withdrawal threshold (MWT) in comparison to group III (burn)” value [2] was “significantly decreased”, the “mechanical withdrawal threshold (MWT) after 72 hours or 96 hours” value [2] was “almost recovered to normal level” and the “average optical density (P2X3 mRNA, in situ hybridization, DRG)” value ([3]; puerarin alone i.p., no burn) was 0.97±0.01. The “average optical density (P2X3 mRNA, in situ hybridization, DRG)” value [3, 6] was 1.01±0.03, the “thermal withdrawal latency, comparison among sham, puerarin alone and control” value [4, 7] was “no significant difference” and the “thermal withdrawal latency (TWL) in comparison to group III (burn)” value [4] was “significantly increased”. The “thermal withdrawal latency (TWL) after 144 hours” value ([4]; p>0.05) was “almost recovered to normal level”.
